Source: PMC7290365, “Human Induced Pluripotent Stem Cell-Derived 3D-Neurospheres Are Suitable for Neurotoxicity Screening” (Cells, 2020)
Where a name gives a salt, the structure may show the parent alone. Read-outs that look alike come from different tables or passages of the source.

Tests used:
[1] = system: hiPSC-derived 3D neurospheres; experiment: cells; assay type: cell-based, human; conditions: for EC10 / EC25 / EC50: Homo sapiens, 72 h; for Effect on cell viability (in words): D21, D28, D42 neurospheres
Experimental: After thawing, NSCs (generated as detailed above) were cultured on POL/L (0.002%/1 µg/cm^2) coated plates (50,000 cells/cm^2). When reached 100% confluence NSCs were propagated with Accutase treatment and single-cell suspension was plated onto a low-adherent 96-well plate with 10,000 cells/well in NMM medium. […] Samples were collected at Day 0 (D0), Day 2 (D2), and weekly intervals from the end of the 1st week (D7) until the end of the 6th week (D14, D21, D28, D35, and D42).
Eleven well-known compounds were tested in 7 different concentrations to generate concentration-response curves. The tested compounds with the used concentrations are detailed in Table S3. […] In each assay plate, 4 technical replicates were applied from each sample and 3 biological replicate assays were run (n = 3). The 3D cell cultures were exposed to the toxicants for 72 h (exposure schemes are detailed in Figure 5A or Figure 6A or Figure 7A). Vehicle control was used as a regular medium supplemented with 0.1% DMSO.
ATP viability assay was performed with CellTiter-Glo® 3D Cell Viability Assay, according to the manufacturer’s protocol (Promega). Neurospheres were lysed with 100 μL CellTiter-Glo® 3D Reagent for 60 min at RT. Luminescence signal was recorded with a Thermo VarioScan Flash (Thermo Fisher Scientific) plate reader.
All results were analyzed using Prism 5 (GraphPad Software, La Jolla, CA, USA) and handled in Microsoft Office 2010 (Microsoft, Redmond, WA, USA) software. For normalization of the concentration response, the average values of positive control were used as 0% and the average of vehicle control served as 100%. Four parameter curve fitting methods were used to determine EC10 and EC50 values, where the data on the graphs represent the average of three biological replicates. The “n” value corresponds to the number of biological replicates for each tested concentration. Analysis of data is presented as the mean ± SEM. Significance of data was determined with paired T test for RT-qPCR (* p < 0.01) and with One-way ANOVA for concentration response (* p < 0.05; ** p < 0.01).

humans = conditions: ref PubChem database (https://pubchem.ncbi.nlm.nih.gov/), cited from earlier work
[2] = system: in vitro multicellular cytotoxicity; conditions: multicellular cytotoxicity "comptox" data; ref EPA's Chemical dashboard (https://comptox.epa.gov/dashboard); cited from earlier work
LUHMES cells [3] = conditions: LUHMES cells exposed; literature value, reference not given; cited from earlier work
LUHMES cells [4] = conditions: cited from earlier work
rat = system: rat; design: method as in PubChem database (https://pubchem.ncbi.nlm.nih.gov/); conditions: ref PubChem database (https://pubchem.ncbi.nlm.nih.gov/), cited from earlier work
[5] = system: hiPSC-derived 3D neurospheres; experiment: TUNEL apoptosis assay on cryosectioned 3D neurospheres; assay type: cell-based, human; conditions: 0.5 µM for 72 h; average, in each stage (D21, D28, D42)
XBP1(S) = experiment: XBP1 assay of endoplasmic reticulum stress; assay type: cell-based, human; conditions: listed as ROT
Experimental: Upon accumulation of unfolded proteins in the endoplasmic reticulum (ER), a 26-nucleotide fragment from the X-box binding protein 1 mRNA (XBP1(U)) is removed with a special splicing mechanism. This shorter mRNA (XBP1(S)) is a frequently used marker of ER-stress. To study the expression of XBP1(S), previously described primers and our own primers were used (Table S2). As a positive control, cells were treated with 5 µM and 10 µM Tunicamycin to induce ER-stress. RT-PCR reactions were performed and analyzed as above, using Phusion Hot Start II High-Fidelity DNA Polymerase and 20 ng of the cDNA samples.

[6] = D21 stage, 72 h exposure, investigated concentration range
[7] = D21 3D neurospheres, 72 h exposure, read-out: EC10 (cell viability) (converted)
[8] = D21 3D neurospheres, 72 h exposure, read-out: EC25 (cell viability) (converted)
[9] = D21 3D neurospheres, 72 h exposure, read-out: EC50 (cell viability) (converted)
[10] = D28 3D neurospheres, 72 h exposure, read-out: EC10 (cell viability) (converted)
[11] = D28 3D neurospheres, 72 h exposure, read-out: EC25 (cell viability) (converted)
[12] = D28 3D neurospheres, 72 h exposure, read-out: EC50 (cell viability) (converted)
[13] = D42 3D neurospheres, 72 h exposure, read-out: EC10 (cell viability) (converted)
[14] = D42 3D neurospheres, 72 h exposure, read-out: EC25 (cell viability) (converted)
[15] = D42 3D neurospheres, 72 h exposure, read-out: EC50 (cell viability) (converted)
[16] = D21 3D neurospheres, 72 h exposure
[17] = D28 3D neurospheres, 72 h exposure
[18] = D42 3D neurospheres, 72 h exposure
[19] = investigated concentration range
[20] = read-out: EC10 (cell viability), D21 3D neurospheres, 72 h exposure
[21] = read-out: EC10 (cell viability), D42 3D neurospheres, 72 h exposure
[22] = read-out: EC25 (cell viability), D21 3D neurospheres, 72 h exposure
[23] = read-out: EC25 (cell viability), D28 3D neurospheres, 72 h exposure
[24] = read-out: EC25 (cell viability), D42 3D neurospheres, 72 h exposure
[25] = read-out: EC10 (cell viability)
[26] = read-out: EC25 (cell viability)
[27] = read-out: EC50 (cell viability)

Structure (SMILES): C=CC(N)=O [Acrylamide, 2-Propenamide]
- EC10 (cell viability) [1]: > 3.5 log µM
- EC25 (cell viability) [1]: > 3.5 log µM

Structure (SMILES): C[n+]1ccc(-c2cc[n+](C)cc2)cc1 [Paraquat, 1,1′-Dimethyl-4,4′-bipyridinium dichloride hydrate]
- Effect on viability of 3D neurospheres (in words) [1, 6]: caused maximum cell death
- EC10 [1, 7]: 14.1 µM
- EC25 [1, 8]: 33.1 µM
- EC50 [1, 9]: 77.6 µM
- EC10 [1, 10]: 22.4 µM
- EC25 [1, 11]: 46.8 µM
- EC50 [1, 12]: 95.5 µM
- EC10 [1, 13]: 12.3 µM
- EC25 [1, 14]: 27.5 µM
- EC50 [1, 15]: 61.7 µM
- Probable oral lethal dose in humans (humans; oral): • - Herbicide; • - neurotoxic: occupational exposures leading to Parkinson’s disease [74]; • - widely investigated neurotoxic mechanism [75, 76]; and • - probable oral lethal dose in humans is 35 mg/kg.

Structure (SMILES): [Cl][Hg][Cl] [Mercury(II) chloride]
- EC10 (cell viability) [1, 16]: 1.1 log µM
- EC25 (cell viability) [1, 16]: 1.5 log µM
- EC50 (cell viability) [1, 16]: 1.87 log µM
- Effect on viability of 3D neurospheres (in words) [1, 6]: caused maximum cell death
- EC10 (cell viability) [1, 17]: 1.4 log µM
- EC25 (cell viability) [1, 17]: 1.60 log µM
- EC50 (cell viability) [1, 17]: 1.83 log µM
- EC10 (cell viability) [1, 18]: 1.34 log µM
- EC25 (cell viability) [1, 18]: 1.54 log µM
- EC50 (cell viability) [1, 18]: 1.74 log µM
- Probable oral lethal dose in humans (humans; oral): 5 to 50 mg/kg
- In vitro cytotoxicity limit [2]: 1.37 µM

Structure (SMILES): CCCC(CCC)C(=O)O [Valproic acid, 2-Propylpentanoic acid]
- EC50 (cell viability) [1, 16]: > 2.6 log µM
- Effect on viability of 3D neurospheres (in words) [1, 6]: minimal effect on the viability
- EC10 [1, 7]: > 398 µM
- EC25 [1, 8]: > 398 µM
- EC50 [1, 9]: > 398 µM
- EC10 [1, 10]: > 398 µM
- EC25 [1, 11]: > 398 µM
- EC50 [1, 12]: > 398 µM
- EC10 [1, 13]: > 398 µM
- EC25 [1, 14]: > 398 µM
- EC50 [1, 15]: > 398 µM
- Effect on cell viability (in words) [1, 19]: no detectable impact
- EC50 (LUHMES cells [3]): > 100 µM
- Neurite outgrowth of LUHMES cells (in words) (LUHMES cells [4]): significant inhibition of neurite outgrowth

Structure (SMILES): CC(C)Cc1ccc(C(C)C(=O)O)cc1 (stereo not drawn) [Ibuprofen, α-Methyl-4-(isobutyl)phenylacetic acid]
- EC50 (cell viability) [1, 16]: > 2 log µM
- Effect on viability of 3D neurospheres (in words) [1, 6]: did not decrease the viability
- EC10 [1, 7]: > 100 µM
- EC25 [1, 8]: > 100 µM
- EC50 [1, 9]: > 100 µM
- EC10 [1, 10]: > 100 µM
- EC25 [1, 11]: > 100 µM
- EC50 [1, 12]: > 100 µM
- EC10 [1, 13]: > 100 µM
- EC25 [1, 14]: > 100 µM
- EC50 [1, 15]: > 100 µM
- Effect on cell viability (in words) [1, 19]: no effect on neuronal cell viability
- Consumed dose at which overdose symptoms appear (humans; individuals): > 99 mg/kg

Structure (SMILES): COc1cccc2c1C(=O)c1c(O)c3c(c(O)c1C2=O)C[C@@](O)(C(=O)CO)C[C@@H]3O[C@H]1C[C@H](N)[C@H](O)[C@H](C)O1 [Doxorubicin, Doxorubicin hydrochloride]
- LD50 (rat; subcutaneous): • - Intercalating chemotherapy drug; • - inhibiting the movement of topoisomerase II, which leads to the blocking of both replication and transcription; and • - LD50: 21.8 mg/kg (rat, subcutaneous).
- Effect on viability of 3D neurospheres (in words) [1, 6]: caused maximum cell death
- EC10 [1, 7]: 0.263 µM
- EC25 [1, 8]: 1.1 µM
- EC50 [1, 9]: 4.68 µM
- EC10 [1, 10]: 2.14 µM
- EC25 [1, 11]: 5.25 µM
- EC50 [1, 12]: 12.9 µM
- EC10 [1, 13]: 3.09 µM
- EC25 [1, 14]: 7.94 µM
- EC50 [1, 15]: 20.9 µM

Structure (SMILES): C=C(C)[C@H]1Cc2c(ccc3c2O[C@@H]2COc4cc(OC)c(OC)cc4[C@@H]2C3=O)O1 [Rotenone]
- EC10 [1, 20]: 0.0129 µM
- EC10 ([1]; read-out: EC10 (cell viability), D28 3D neurospheres, 72 h exposure): 0.00646 µM
- EC10 [1, 21]: 0.00447 µM
- EC25 [1, 22]: 0.0562 µM
- EC25 [1, 23]: 0.0347 µM
- EC25 [1, 24]: 0.0331 µM
- EC50 ([1]; read-out: EC50 (cell viability), D21 3D neurospheres, 72 h exposure): 0.245 µM
- EC50 ([1]; read-out: EC50 (cell viability), D28 3D neurospheres, 72 h exposure): 0.182 µM
- EC50 ([1]; read-out: EC50 (cell viability), D42 3D neurospheres, 72 h exposure): 0.24 µM
- Probable lethal dose in human (humans): 300 to 500 mg/kg
- In vitro cytotoxicity limit [2]: 0.22 µM
- Increase in the apoptotic cell number compared to the control [5]: 15%
- ER-stress inducing effect (XBP1 assay) (XBP1(S)): no ER-stress inducing effect
- Neurite outgrowth of LUHMES cells (in words) (LUHMES cells [4]): prominent neurite growth inhibition

Structure (SMILES): CO[C@H]1/C=C/O[C@@]2(C)Oc3c(C)c(O)c4c(O)c(c(/C=N/N5CCN(C)CC5)c(O)c4c3C2=O)NC(=O)/C(C)=C\C=C\[C@H](C)[C@H](O)[C@@H](C)[C@@H](O)[C@@H](C)[C@H](OC(C)=O)[C@@H]1C [Rifampicin, 3-(4-Methylpiperazinyliminomethyl)rifamycin]
- LD50 (rat; route not given): 1570 mg/kg
- EC50 (cell viability) [1]: > 2 log µM
- Effect on viability of 3D neurospheres (in words) [1]: reduced the viability
- EC10 [1, 25]: > 100 µM
- EC25 [1, 26]: > 100 µM
- EC50 [1, 27]: > 100 µM
- Probable lethal oral dose in humans (humans; oral): 14 to 60 g

Structure (SMILES): CC(=O)Nc1ccc(O)cc1 [Paracetamol, 4′-Hydroxyacetanilide]
- LD50 (rat; oral): 2400 mg/kg
- EC50 (cell viability) [1]: > 2 log µM
- Effect on viability of 3D neurospheres (in words) [1]: minimal effect on the viability
- EC10 [1, 25]: > 100 µM
- EC25 [1, 26]: > 100 µM
- EC50 [1, 27]: > 100 µM
- Acute overdose at which hepatic toxicity occurred in humans (humans): > 10 g

Structure (SMILES): Oc1c(Cl)cc(Cl)c(Cl)c1Cc1c(O)c(Cl)cc(Cl)c1Cl [Hexachlorophene, 2,2′-Methylenebis(3,4,6-trichlorophenol)]
- LD50 (rat; oral): 66 mg/kg
- Effect on viability of 3D neurospheres (in words) [1, 6]: had a strong effect on the viability, but did not kill all the cells
- EC10 [1, 7]: 0.631 µM
- EC25 [1, 8]: 3.39 µM
- EC50 [1, 9]: 18.2 µM
- EC10 [1, 10]: 0.257 µM
- EC25 [1, 11]: 1.62 µM
- EC50 [1, 12]: 10.2 µM
- EC10 [1, 13]: 0.0661 µM
- EC25 [1, 14]: 0.457 µM
- EC50 [1, 15]: 3.16 µM
- In vitro cytotoxicity limit [2]: 1.86 µM

Structure (SMILES): COc1cc2c(c(OC)c1OC)-c1ccc(OC)c(=O)cc1[C@@H](NC(C)=O)CC2 [Colchicine, (S)-N-(5,6,7,9-Tetrahydro-1,2,3,10-tetramethoxy-9-oxobenzo[a]heptalen-7-yl)acetamide]
- Effect on viability of 3D neurospheres (in words) [1, 6]: had a strong effect on the viability, but did not kill all the cells
- EC10 [1, 20]: 0.000257 µM
- EC10 [1, 21]: 0.000282 µM
- EC25 [1, 22]: 0.00912 µM
- EC25 [1, 23]: 0.0129 µM
- EC25 [1, 24]: 0.00575 µM
- Probable oral lethal dose in humans (humans; oral): < 5 mg/kg
- In vitro cytotoxicity limit [2]: 0.02 µM
